# Entries after “also recorded” stand apart in the source; their conditions may differ.
# Legend:
# anti-carbaMenA DP8 serum = experiment: Competitive ELISA of anti-carbaMenA DP8 serum; type: binding, BALB/c female mice
# Experimental: (§1) Conjugates prepared as previously described from sized MenA polysaccharide with avDP8.5 and ˜15 were used as controls.
# (§2) Mice received three subcutaneously (s.c.) doses (2 μg on saccharide base), two weeks apart. The neo-glycoconjugate induced an immune response at week 3, as observed by assaying the sera elicited by the conjugate against the same product coated on ELISA plates. At the serum dilutions tested no anti-CRM197 antibodies were detectable. Each of the conjugates gave antibodies recognizing the conjugated antigen and the specificity of this recognition was confirmed by competitive ELISA.
# MenA CPS = experiment: Mice immunization, ELISA anti-MenA CPS IgG; type: in vivo, BALB/c mice; conditions: first study, Table 4
# Experimental: as §1, §2
# To test the immunogenicity of the conjugated carba DP6 and DP8 analogues with and without random acetylation, groups of eight BALB/c female mice were immunized with the neoglycoconjugates. Conjugated sized MenA polysaccharide was used as control. Mice were immunized with three subcutaneously (s.c.) doses (2 μg on saccharide base) two weeks apart. […]
# All mice were housed under specific pathogen-free conditions. […] The antibody response induced by the glycoconjugates has been measured by ELISA. […] Finally, plates were incubated for 30 min at room temperature and read at 405 nm using the plate reader Spectramax 190. Sera titers were expressed as the reciprocal of sera dilution corresponding to a cut-off OD=1. […]
# [1] = test system: bactericidal anti-MenA mAb (JW-A1); experiment: Competitive ELISA with anti-MenA mAb, CPS as coating; type: binding; conditions: FIG. 5A
# Excerpt: (FIG. 5C) Competitive SPR of binding between anti-MenA mAb and immobilized biotylinated CPS. MenA CPS and deOAc CPS were the positive controls and the beta-glucan Laminarin was the negative control in A and B. MenA CPS and fragments thereof were used as positive controls and anti-MenC mAb was flown on the chip as negative control in C.
# An important prerequisite for the immunogenicity of the carba-analogues is their ability to mimic the natural MenA CPS. To investigate this property in vitro, binding of oligomers with the different length to a bactericidal anti-MenA mAb (JW-A1) in comparison to CPS and a medium length oligomer with avDP ˜15 was tested as described in Giuntini, S. et al., PLoS One, 2012, 7, e34272; Tsang, R. S. et al., Clin. Diagn. Lab. Immunol., 2005, 12, 152-156; and Reyes, F. et al., Biologicals, 2013, 41, 275-278.
# [2] = test system: anti-MenA polyclonal serum; experiment: Competitive ELISA with anti-MenA polyclonal serum, CPS as coating; type: binding; conditions: serum from mice immunized with MenA-CRM197 conjugate, FIG. 5B
# anti-deOAc MenA serum = experiment: Competitive ELISA against anti-deOAc MenA serum; type: binding
# Experimental: This corroborated the propensity of carba DP8 to anti-MenA antibody binding. The different fragments were then tested against an anti-deOAc MenA serum.
# [3] = DSC, cited from earlier work; for Tm of the N-terminal domain: Johnson et al. 2012
Substance,inhibition of the binding of the anti-carbaMenA DP8 serum (in words) (anti-carbaMenA DP8 serum),anti-MenA CPS response lower than the benchmark MenA-CRM197 conjugate (MenA CPS),IC50 higher compared to the native CPS [1],"recognition of / binding to the anti-MenA mAb ([1]; competitive ELISA, non-acetylated carbaMenA oligomers as inhibitors, CPS coating)",performance as inhibitor [2],IC50 (anti-deOAc MenA serum),Tm of the N-terminal domain [3],Tm of C-terminal domains [3]
1-O-octa-(2-Acetamido-2-deoxy-5a-carba-α-D-mannopyranosyl-1-O-phosphoryl)-6-hexyl-amine [carba DP8],to a greater extent than its conjugated form,2 fold lower,4 orders of magnitude,binding was observed; also recorded: clearly binding to anti-MenA antibodies,performed as inhibitor comparably to the deOAc CPS,15.9 µM,,
wild-type v2: wild-type meningococcal fHbp variant 2 from strain 2996,,,,,,,≤ 40 °C,≥ 80 °C
wild-type v3: wild-type meningococcal fHbp variant 3 from strain M1239,,,,,,,≤ 60 °C,≥ 80 °C
